Measurements published in patent US11312727B1, “Macrocyclic flu endonuclease inhibitors” (Janssen BioPharma, Inc., priority 2018, dated 2022).

Assays:
[1] = tested on: Influenza strain A549 A/WSN/33 (H1N1); experiment: microbe, parasite or virus in culture; assay type: cell-based; settings: Influenza A virus, A549, 20 h, A549 cells, influenza A/WSN/33 (H1N1), 20 hours incubation; read-out: A549_A(H1N1) EC50
in vitro = settings: human, CC50, uninfected A549 cells, CellTiter-Glo

| SMILES | EC50 [1] [nM] | CC50 (in vitro) [nM] |
| --- | --- | --- |
| O=C1c2c(O)c(=O)ccn2N2CN1C/C=C\COc1ccccc1[C@@H]2c1ccccc1F (single isomer, unassigned) [Compound 36A, (18*R,Z)-18-(2-fluorophenyl)-12-hydroxy-6,9-dihydro-18H-10,17-methanobenzo[b]pyrido[1,2-f][1]oxa[5,6,9]triazacyclotridecine-11,13-dione] | 15 | > 2000 |
| O=C1c2c(O)c(=O)ccn2N2CN1CCC/C=C\c1ccccc1[C@H]2c1ccccc1 (single isomer, unassigned) [Compound 54A, (16*R,*Z)-4-hydroxy-16-phenyl-7,8,9,16-tetrahydro-6,17-methanobenzo[k]pyrido[1,2-b][1,2,5]triazacyclotridecine-3,5-dione] | > 1000 | > 2000 |
| O=C1c2c(O)c(=O)ccn2N2CN1C/C=C\CCOc1ccccc1C2c1ccccc1 (stereo not shown) [Compound 19, (*Z)-15-hydroxy-2-phenyl-12,13,14,16-tetrahydro-11H-4-oxa-1(1,3)-pyrido[2,1-f][1,2,4]triazina-3(1,2)-benzenacyclononaphan-7-ene-14,16-dione] | 260 | > 2000 |
| O=C1c2c(O)c(=O)ccn2N2CN1CCCCCc1ncccc1[C@@H]2c1ccccc1 (single isomer, unassigned) [Compound 23B, (18*S)-12-hydroxy-18-phenyl-5,6,7,8,9,18-hexahydro-10,17-methanodipyrido[1,2-b:2′,3′-k][1,2,5]triazacyclotridecine-11,13-dione] | 12200 | > 1000 |
| CC(C)[C@H]1/C=C/COc2ccccc2[C@H](c2ccccc2)N2CN1C(=O)c1c(O)c(=O)ccn12 (single isomer, unassigned) [Compound 132B, (9*S,18*S,*E)-12-hydroxy-9-isopropyl-18-phenyl-6,9-dihydro-18H-10,17-methanobenzo[b]pyrido[1,2-f][1]oxa[5,6,9]triazacyclotridecine-11,13-dione] | 9.3 | > 200 |
| O=C1c2c(O)c(=O)ccn2N2CN1C/C=C\COc1ccc(F)cc1[C@H]2c1cccc(F)c1 (single isomer, unassigned) [Compound 25A, (18*R,Z)-2-fluoro-18-(3-fluorophenyl)-12-hydroxy-6,9-dihydro-18H-10,17-methanobenzo[b]pyrido[1,2-f][1]oxa[5,6,9]triazacyclotridecine-11,13-dione] | 9800 | > 2000 |
| CC[C@@H]1/C=C/COc2c(ccc(F)c2F)[C@@H](c2ccccc2)N2CN1C(=O)c1c(O)c(=O)ccn12 [Compound 101AB, (9R,18R,E)-9-ethyl-3,4-difluoro-12-hydroxy-18-phenyl-6,9-dihydro-18H-10,17-methanobenzo[b]pyrido[1,2-f][1]oxa[5,6,9]triazacyclotridecine-11,13-dione] | 1.3 | > 200 |
| O=C1c2c(O)c(=O)ccn2N2CN1C/C=C/CCc1ccccc1[C@@H]2c1ccccn1 [Compound 43B, (17R,E)-4-hydroxy-16-(pyridin-2-yl)-7,10,11,16-tetrahydro-6,17-methanobenzo[k]pyrido[1,2-b][1,2,5]triazacyclotridecine-3,5-dione] | > 1000 | > 2000 |
| O=C1c2c(O)c(=O)ccn2N2CN1C[C@H]1C[C@@H]1COc1c(ccc(F)c1F)[C@H]2c1ccccc1 (single isomer, unassigned) [Compound 139BA, (1a*S,8*R,17a*S)-4,5-difluoro-14-hydroxy-8-phenyl-1a,2,17,17a-tetrahydro-1H,8H-9,16-methanobenzo[b]cyclopropa[k]pyrido[1,2-f][1]oxa[5,6,9]triazacyclotridecine-13,15-dione] | 44.6 | > 100 |
| O=C1c2c(O)c(=O)ccn2N2CN1C/C=C\COc1cccc3c1[C@@H]2c1ccccc1SC3 [Compound 46A, (21R,Z)-16-hydroxy-6,10,13,21a-tetrahydro-7,8-(epiprop[1]en[1]yl[3]ylidene)-14,21-methanobenzo[6,7]thiepino[4,5-c]pyrido[1,2-f][1]oxa[5,6,9]triazacyclotridecine-15,17-dione] | 64 | > 2000 |
| O=C1c2c(O)c(=O)ccn2N2CN1[C@@H]1C[C@@H]1CCOc1cccc3c1[C@@H]2c1ccccc1SC3 (stereo in doubt) [Compound 166A, cis-(11a*RS,12a*RS,13S,20a*R)-15-hydroxy-6,11,11a,12,12a,20a-hexahydro-10H-7,8-(epiprop[1]en[1]yl[3]ylidene)-13,20-methanobenzo[6,7]thiepino[4,5-c]cyclopropa[j]pyrido[1,2-f][1]oxa[5,6,9]triazacyclotridecine-14,16-dione] | > 50 | > 100 |
| CC[C@H]1/C=C/COc2c(ccc(Cl)c2F)[C@H](c2ccccc2)N2CN1C(=O)c1c(O)c(=O)ccn12 (single isomer, unassigned) [Compound 170AA, (9*S,18*S,E)-3-chloro-9-ethyl-4-fluoro-12-hydroxy-18-phenyl-6,9-dihydro-18H-10,17-methanobenzo[b]pyrido[1,2-f][1]oxa[5,6,9]triazacyclotridecine-11,13-dione] | > 50 | > 100 |
| CC(C)[C@@H]1/C=C/COc2c(F)cccc2[C@H](c2ccccc2)N2CN1C(=O)c1c(O)c(=O)ccn12 (single isomer, unassigned) [Compound 124BB, (9*R,18*S,*E)-4-fluoro-12-hydroxy-9-isopropyl-18-phenyl-6,9-dihydro-18H-10,17-methanobenzo[b]pyrido[1,2-f][1]oxa[5,6,9]triazacyclotridecine-11,13-dione] | 5.3 | > 200 |
| O=C1c2c(O)c(=O)ccn2N2CN1C1(/C=C/COc3ccccc3[C@@H]2c2ccccc2)CC1 [Compound 79A, (18'S,E)-12′-hydroxy-18′-phenyl-6′H,18′H-spiro[cyclopropane-1,9′-[10,17]methanobenzo[b]pyrido[1,2-f][1]oxa[5,6,9]triazacyclotridecine]-11′,13′-dione] | > 500 | > 1000 |
| O=C1c2c(O)c(=O)ccn2N2CN1C1(/C=C/COc3c(Cl)cccc3[C@H]2c2ccccc2)CC1 (single isomer, unassigned) [Compound 96A, (18′*R,E)-4′-chloro-12′-hydroxy-18′-phenyl-6′H,18′H-spiro[cyclopropane-1,9′-[10,17]methanobenzo[b]pyrido[1,2-f][1]oxa[5,6,9]triazacyclotridecine]-11′,13′-dione] | 1.9 | > 200 |
| C[C@@H]1/C=C/COc2ccccc2[C@H](c2ccccc2)N2CN1C(=O)c1c(O)c(=O)ccn12 (single isomer, unassigned) [Compound 29BA, (9*R, 18*S, E)-12-hydroxy-9-methyl-18-phenyl-6,9-dihydro-18H-10,17-methanobenzo[b]pyrido[1,2-f][1]oxa[5,6,9]triazacyclotridecine-11,13-dione] | 1710 | 83100 |
| O=C1c2c(O)c(=O)ccn2N2CN1C1(/C=C/COc3cccc4c3[C@@H]2c2ccccc2SC4)CCC1 (single isomer, unassigned) [Compound 147A, (17a′*R,*E)-12′-hydroxy-2′,17a′-dihydro-6′H-spiro[cyclobutane-1,9′-[3,4](epiprop[1]en[1]yl[3]ylidene)[10,17]methanobenzo[6,7]thiepino[4,5-c]pyrido[1,2-f][1]oxa[5,6,9]triazacyclotridecine]-11′,13′-dione] | > 5000 | > 10000 |
| O=C1c2c(O)c(=O)ccn2N2CN1CC/C=C/COc1cccc3c1[C@H]2c1cccc(F)c1SC3 (single isomer, unassigned) [Compound 137B, (1*S,13*E)-25-fluoro-7-hydroxy-16-oxa-23-thia-2,3,10-triazahexacyclo[15.12.1.12,10.03,8.021,30.024,29]hentriaconta-4,7,13,17,19,21(30),24(29),25,27-nonaene-6,9-dione] | 5.3 | > 200 |
| CC(C)[C@@H]1/C=C/COc2cc(F)c(F)c3c2[C@H](c2ccccc2SC3)N2CN1C(=O)c1c(O)c(=O)ccn12 (single isomer, unassigned) [Compound 169BB, (9*R,17a*R,*E)-24,25-difluoro-12-hydroxy-9-isopropyl-2,6,9,17a-tetrahydro-3,4-(epiprop[1]en[1]yl[3]ylidene)-10,17-methanobenzo[6,7]thiepino[4,5-c]pyrido[1,2-f][1]oxa[5,6,9]triazacyclotridecine-11,13-dione] | 1.3 | > 100 |
| O=C1c2c(O)c(=O)ccn2N2CN1C1(/C=C\COc3cc(F)c(F)c4c3[C@H]2c2ccccc2SC4)CC1 (single isomer, unassigned) [Compound 108D] | 0.9 | > 200 |
| O=C1c2c(O)c(=O)ccn2N2CN1C/C=C\COc1ccccc1[C@@H]2c1ccc(F)cc1 (single isomer, unassigned) [Compound 47B, (18*S,Z)-18-(4-fluorophenyl)-12-hydroxy-6,9-dihydro-18H-10,17-methanobenzo[b]pyrido[1,2-f][1]oxa[5,6,9]triazacyclotridecine-11,13-dione] | 15 | > 200 |
| Cc1cccc2c1OC/C=C\CN1CN([C@H]2c2ccccc2)n2ccc(=O)c(O)c2C1=O (single isomer, unassigned) [Compound 110A, (18*S,Z)-12-hydroxy-4-methyl-18-phenyl-6,9-dihydro-18H-10,17-methanobenzo[b]pyrido[1,2-f][1]oxa[5,6,9]triazacyclotridecine-11,13-dione] | 6.4 | > 200 |
| O=C1c2c(O)c(=O)ccn2N2CN1C1(/C=C/COc3c(F)cccc3[C@H]2c2ccccc2)CC1 (single isomer, unassigned) [Compound 95B, (18′*R,E)-4′-fluoro-12′-hydroxy-18′-phenyl-6′H,18′H-spiro[cyclopropane-1,9′-[10,17]methanobenzo[b]pyrido[1,2-f][1]oxa[5,6,9]triazacyclotridecine]-11′,13′-dione] | 1.7 | > 1000 |
